One assay concerns the target Tyk2 kinase domain (JH1) (Homo sapiens (Human), UniProt P29597). The assay is described as follows: Tyk2 Radioactive Kinase Assay. It counts as biochemical. Particulars: ATP 10 μM. The protocol:
(§1) The Tyk2 and JAK2 radioactive kinase assay measures the percent inhibition at the Tyk2 kinase domain (JH1) and the percent inhibition at the JAK2 kinase domain (JH1). Results of the assay are expressed as percent inhibition at 10 μM.

The next assay addresses JAK2 kinase domain (JH1) (Homo sapiens (Human), UniProt O60674). As to the kind of experiment: JAK2 Radioactive Kinase Assay. It is filed as biochemical. Particulars: ATP 10 μM. The protocol:
as §1

In assay [1] the target is human TYK2 (JH2 domain-pseudokinase) (Homo sapiens (Human), UniProt P29597). The assay is described as follows: TYK2 JH2 Domain Binding Assay (KINOMEscan). The protocol: Binding constants for compounds of the present invention against the JH2 domain were determined by the following protocol for a KINOMEscan® assay (DiscoveRx). A fusion protein of a partial length construct of human TYK2 (JH2 domain-pseudokinase) (amino acids G556 to D888 based on reference sequence NP_003322.3) and the DNA binding domain of NFkB was expressed in transiently transfected HEK293 cells. From these HEK 293 cells, extracts were prepared in M-PER extraction buffer (Pierce) in the presence of Protease Inhibitor Cocktail Complete (Roche) and Phosphatase Inhibitor Cocktail Set II (Merck) per manufacturers' instructions. The TYK2 (JH2 domain-pseudokinase) fusion protein was labeled with a chimeric double-stranded DNA tag containing the NFkB binding site (5′-[…]-3′) fused to an amplicon for qPCR readout, which was added directly to the expression extract (the final concentration of DNA-tag in the binding reaction is 0.1 nM).
The liganded beads were blocked with excess biotin and washed with blocking buffer (SeaBlock (Pierce), 1% BSA, 0.05% Tween 20, 1 mM DTT) to remove unbound ligand and to reduce nonspecific binding.
Extracts were used directly in binding assays without any enzyme purification steps at a ≥10,000-fold overall stock dilution (final DNA-tagged enzyme concentration<0.1 nM). Extracts were loaded with DNA-tag and diluted into the binding reaction in a two step process. First extracts were diluted 1:100 in 1× binding buffer (PBS/0.05% Tween 20/10 mM DTT/0.1% BSA/2 μg/ml sonicated salmon sperm DNA) containing 10 nM DNA-tag. This dilution was allowed to equilibrate at room temperature for 15 minutes and then subsequently diluted 1:100 in 1× binding buffer. […] Kds were determined using an 11-point 3-fold compound dilution series with three DMSO control points. […] The compounds were then diluted directly into the assays such that the final concentration of DMSO was 0.9%. All reactions performed in polypropylene 384-well plates. Each was a final volume of 0.02 mL. Assays were incubated with shaking for 1 hour at room temperature. Then the beads were pelleted and washed with wash buffer (lx PBS, 0.05% Tween 20) to remove displaced kinase and test compound. […] The qPCR protocol consisted of a 10 minute hot start at 95° C., followed by 35 cycles of 95° C. for 15 seconds, 60° C. for 1 minute.
Kds were determined using an 11-point 3-fold compound dilution series with three DMSO control points. […] The compounds were then diluted directly into the assays such that the final concentration of DMSO was 0.9%. The Kds were determined using a compound top concentration of 30,000 nM. Kd measurements were performed in duplicate.
Binding constants (Kds) were calculated with a standard dose-response curve using the Hill equation: […]
The Hill Slope was set to −1.

For assay [2], the system named is IL-12 induced STAT4 phophorylation mediated by Tyk2/JAK2 (heterodimeric complex). The assay is described as follows: IL-12 Induced pSTAT4 in Human PBMC. It counts as cell-based. Particulars: 1.7 ng/mL IL-12. An excerpt:
The IL-12 Induced pSTAT4 assay evaluates the inhibition of IL-12 induced STAT4 phophorylation mediated by Tyk2/JAK2 (heterodimeric complex).

Assay [3] relates to GM-CSF induced STAT5 phosphorylation mediated by the JAK2/JAK2 homdimeric complex. As to the kind of experiment: GM-CSF Induced pSTAT5 in Human PBMC. The following applies: Homo sapiens, PBMC, 20 min, read-out: PBMC_GMCSF_pSTAT5 IC50, human PBMC; GM-CSF 5 ng/mL for 20 minutes; pSTAT5.
From the text: Human PBMC are isolated from buffy coat and are stored frozen for assays as needed.

Some results are limits rather than exact numbers.

One may read the inhibition as the change of the read-out against control, counted positive when it falls. The term Kd denotes the equilibrium constant for the complex coming apart. High values mean a looser complex, low ones a tighter complex. In general, IC50 refers to the concentration that inhibits the measured activity by half.

JAK2 kinase domain (JH1), sequence (O60674 849-1124): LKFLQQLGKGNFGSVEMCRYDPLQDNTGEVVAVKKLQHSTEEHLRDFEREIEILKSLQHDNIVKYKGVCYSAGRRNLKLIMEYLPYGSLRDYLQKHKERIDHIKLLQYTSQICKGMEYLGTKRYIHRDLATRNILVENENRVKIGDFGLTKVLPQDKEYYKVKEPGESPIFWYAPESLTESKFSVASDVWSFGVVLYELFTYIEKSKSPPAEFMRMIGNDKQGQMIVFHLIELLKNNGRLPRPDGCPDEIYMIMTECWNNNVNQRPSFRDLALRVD
Tyk2 kinase domain (JH1), sequence (P29597 897-1176): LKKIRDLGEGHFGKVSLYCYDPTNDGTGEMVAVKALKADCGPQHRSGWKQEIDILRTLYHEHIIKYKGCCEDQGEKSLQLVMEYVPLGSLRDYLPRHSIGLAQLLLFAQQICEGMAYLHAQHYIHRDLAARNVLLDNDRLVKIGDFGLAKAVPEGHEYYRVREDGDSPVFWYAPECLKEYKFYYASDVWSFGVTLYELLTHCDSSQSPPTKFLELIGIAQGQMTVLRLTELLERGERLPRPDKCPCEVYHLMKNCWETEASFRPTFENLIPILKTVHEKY
human TYK2 (JH2 domain-pseudokinase), sequence (P29597 556-888): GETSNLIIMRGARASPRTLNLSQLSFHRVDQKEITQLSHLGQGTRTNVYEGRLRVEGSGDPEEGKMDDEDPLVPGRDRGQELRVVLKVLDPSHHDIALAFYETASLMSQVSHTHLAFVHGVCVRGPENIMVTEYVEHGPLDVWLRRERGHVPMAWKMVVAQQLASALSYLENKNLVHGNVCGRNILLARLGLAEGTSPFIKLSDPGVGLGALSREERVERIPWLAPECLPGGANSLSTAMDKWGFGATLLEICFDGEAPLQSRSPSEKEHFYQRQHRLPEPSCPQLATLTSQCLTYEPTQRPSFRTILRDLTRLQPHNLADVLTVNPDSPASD

As for `CNc1cc(Nc2cccn(-c3cnc(C(=O)N(C)C)cn3)c2=O)nc2c(C(N)=O)cnn12` [I-53, 5-((1-(5-(dimethylcarbamoyl)pyrazin-2-yl)-2-oxo-1,2-dihydropyridin-3-yl)amino)-7-(methylamino)pyrazolo[1,5-a]pyrimidine-3-carboxamide], the inhibition at 10 µM at Tyk2 kinase domain (JH1) (10 μM compound) and at JAK2 kinase domain (JH1) (10 μM compound) was less than 50% in each case. The compound also yielded a dissociation constant (Kd) in assay [1] of less than 0.2 nM.

With `CNc1cc(Nc2cccn(-c3cccc(C)n3)c2=O)nc2c(C(=O)NC3CC3)cnn12` [I-237], the “Tyk2 JH1% Inhibition @ 10 μM” value on Tyk2 kinase domain (JH1) (10 μM compound) was “A (percent inhibition at 10 μM lower than 50)”. Besides, the “JAK2 JH1% Inhibition @ 10 μM” value at JAK2 kinase domain (JH1) (10 μM compound) is recorded as “A (percent inhibition at 10 μM lower than 50)”.

For the compound `CNc1cc(Nc2cccnc2OC2CC2)nc2c(C(=O)NC3CC4(COC4)C3)cnn12` [I-433], the inhibition at 10 µM at Tyk2 kinase domain (JH1) (compound at 10 μM) was less than 50%; at JAK2 kinase domain (JH1) (compound at 10 μM), 50 to 70%.

For `[2H]C([2H])([2H])Oc1ncccc1Nc1cc(NC)n2ncc(C(=O)N[C@H]3[C@@H]4COC[C@@H]43)c2n1` [I-447], in assay [1], the Kd is less than 0.2 nM.

For `CNc1cc(Nc2cc(F)cn(C3CCOCC3)c2=O)nc2c(C(=O)NCC(C)(C)CO)cnn12` [I-529], the inhibition at 10 µM on Tyk2 kinase domain (JH1) (compound at 10 μM) and at JAK2 kinase domain (JH1) (compound at 10 μM) was less than 50% in each case.

`CNc1cc(Nc2cccc([C@@H]3CCCOC3)n2)nc2c(C(=O)N[C@H]3CC[C@H]3O)cnn12` [I-645]: the dissociation constant Kd in assay [1] was 1 to 10 nM.

With `CNc1cc(Nc2cc(Cl)cn(C3CCOCC3)c2=O)nc2c(C(=O)NCC(C)(C)CO)cnn12` [I-694], the inhibition at 10 µM on Tyk2 kinase domain (JH1) (compound at 10 μM) and on JAK2 kinase domain (JH1) (compound at 10 μM) was less than 50% in each case. For the same compound, the IC50 in assay [2] is less than 100 nM; in assay [3], greater than 50000 nM. This compound also yielded a dissociation constant (Kd) in assay [1] of less than 0.2 nM.

`CNc1cc(Nc2cccc(N3CCOC4(CCOC4)C3)n2)nc2c(C(=O)NC3CC3)cnn12` (centres unmarked) [I-744]: the inhibition at 10 µM at Tyk2 kinase domain (JH1) (compound at 10 μM) and on JAK2 kinase domain (JH1) (compound at 10 μM) was less than 50% each time.

On to `CNc1cc(Nc2cccn([C@H]3CCCC[C@H]3O)c2=O)nc2c(C(=O)N[C@@H]3C[C@@H]3F)cnn12` [I-988, N-((1R,2S)-2-fluorocyclopropyl)-5-((1-((1S,2R)-2-hydroxycyclohexyl)-2-oxo-1,2-dihydropyridin-3-yl)amino)-7-(methylamino)pyrazolo[1,5-a]pyrimidine-3-carboxamide], for which the inhibition at 10 µM on Tyk2 kinase domain (JH1) (10 μM compound) and on JAK2 kinase domain (JH1) (10 μM compound) was less than 50% throughout. Moreover, the IC50 in assay [2] was less than 100 nM; in assay [3], greater than 50000 nM. Also, the Kd in assay [1] was less than 0.2 nM.

As for `CNc1cc(Nc2cccn(-c3ccccn3)c2=O)nc2c(C(=O)N[C@@H]3CC[C@H]3COC)cnn12` [I-1232], in assay [1], the dissociation constant (Kd) is 0.2 to 1 nM.

With `CNc1cc(-c2cn(C3CC3)c3ncccc23)nc2c(C(=O)N[C@@H]3CC[C@H]3OC)cnn12` [I-1324], the Kd in assay [1] is less than 0.2 nM.

For `CNc1cc(-c2cn([C@H]3CCN(CCF)C3)c3cnccc23)nc2c(C(=O)N[C@@H]3C[C@@H]3F)cnn12` [I-1362], the IC50 in assay [2] is less than 100 nM. Besides, the Kd in assay [1] fell in the range of 0.2 to 1 nM.

With `CNc1cc(-c2cn([C@H]3CCN(CCF)C3)c3cnccc23)nc2c(C(=O)NC3CC3)cnn12` [I-1363], the Kd in assay [1] fell in the range of 0.2 to 1 nM.

Compound `CNc1cc(Nc2cccn(C(C)C)c2=O)cc2c(C(=O)N[C@H]3CC[C@@]3(C)O)cnn12` [I-1371] showed a dissociation constant (Kd) in assay [1] of less than 0.2 nM.

`CNc1cc(C2=CN(C(C)C)C3N=CC(F)=CC23)nc2c(C(=O)N[C@@H]3CC[C@@H]3O)cnn12` (some centres unmarked) [I-1386] displayed a Kd in assay [1] of 1 to 10 nM.

`CNc1cc(C2=CN(C(C)C)C3N=CC(F)=CC23)nc2c(C(=O)N[C@H]3CC[C@H]3O)cnn12` (some centres unmarked) [I-1387] registered an IC50 in assay [2] of less than 100 nM. Further, in assay [1], the Kd lay in the range of 1 to 10 nM.
